The values that follow come from patent publication US7153993B2, “Process for making polymorphic form A of 4-[6-acetyl-3-[3-(4-acetyl-3-hydroxy-2-propylphenylthio)propoxy]-2-propylphenoxy]butyric acid” (Medicinova, Inc., priority 2003, dated 2006).

A short description of series [1]: Oral activity for treatment of asthma and allergic diseases. Format: in vivo.
The nature of series [2]: Solubility of crystalline polymorphs in ether. Format: physicochemical. From the text:
After re-crystallization with individual solvents, compound (1) was subjected to powder X-ray diffractometry, thermal analysis and determination of solubility in ether; thus an exploratory evaluation of the crystalline polymorphism was made.

A short description of series [3]: Solubility of compound (1) in ethanol/water (2:1). As to conditions: stirred one hour. It is filed as physicochemical. The protocol:
Samples of compound (1) (5 g) were suspended in ethanol/water (2:1, 100 mL) and stirred for one hour at temperatures of 22° C., 30° C., and 40° C., respectively. The suspensions were filtered and the solids dried in a vacuum oven at room temperature overnight to give the insoluble material. The solubilities were calculated by subtractive means based on recovered material.

In brackets after ≈: the same amount, converted by molar mass.

Take `CCCc1c(SCCCOc2ccc(C(C)=O)c(OCCCC(=O)O)c2CCC)ccc(C(C)=O)c1O` [Compound (1), 4-[6-acetyl-3-[3-(4-acetyl-3-hydroxy-2-propylphenylthio)propoxy]-2-propylphenoxy]butyric acid]: the “oral activity for treatment of asthma and allergic diseases” value in series [1] is “orally active”.

In series [2] (ether, listed as I), `CCCc1c(SCCCOc2ccc(C(C)=O)c(OCCCC(=O)O)c2CCC)ccc(C(C)=O)c1O` [Form I, 4-[6-acetyl-3-[3-(4-acetyl-3-hydroxy-2-propylphenylthio)propoxy]-2-propylphenoxy]butyric acid] came in with a Solubility in ether of 36.7 mg/mL (≈ 69.2 mM).

As a reminder, the solubility is the dissolved amount per volume that the medium holds. `CCCc1c(SCCCOc2ccc(C(C)=O)c(OCCCC(=O)O)c2CCC)ccc(C(C)=O)c1O` [Form II, 4-[6-acetyl-3-[3-(4-acetyl-3-hydroxy-2-propylphenylthio)propoxy]-2-propylphenoxy]butyric acid]: the solubility in series [2] (ether, organic solvent or mixture) worked out at 40.5 mg/mL (≈ 76.3 mM).

With `CCCc1c(SCCCOc2ccc(C(C)=O)c(OCCCC(=O)O)c2CCC)ccc(C(C)=O)c1O` [Form III, 4-[6-acetyl-3-[3-(4-acetyl-3-hydroxy-2-propylphenylthio)propoxy]-2-propylphenoxy]butyric acid], the Solubility in ether in series [2] (ether, listed as III) is 35.3 mg/mL (≈ 66.5 mM).

With `CCCc1c(SCCCOc2ccc(C(C)=O)c(OCCCC(=O)O)c2CCC)ccc(C(C)=O)c1O` [Form IV, 4-[6-acetyl-3-[3-(4-acetyl-3-hydroxy-2-propylphenylthio)propoxy]-2-propylphenoxy]butyric acid], the Solubility in ether in series [2] (ether, listed as IV) came out at 45.8 mg/mL (≈ 86.3 mM).

Consider `CCCc1c(SCCCOc2ccc(C(C)=O)c(OCCCC(=O)O)c2CCC)ccc(C(C)=O)c1O` [Form V, 4-[6-acetyl-3-[3-(4-acetyl-3-hydroxy-2-propylphenylthio)propoxy]-2-propylphenoxy]butyric acid], for which the “Solubility in ethanol/water (2:1)” value stood at 15.7 mg/mL (≈ 29.6 mM) in series [3] (30° C., listed as V (form A)) and 46 mg/mL (≈ 86.7 mM) in series [3] (40° C., listed as V (form A)). In series [3] (ethanol/water (2:1), 22 °C, organic solvent or mixture, thermodynamic from solid, 22° C.), the solubility at 1 h was determined as 6.7 mg/mL (≈ 12.6 mM). In series [2] (ether, listed as V), the Solubility in ether is given as 47.6 mg/mL (≈ 89.7 mM). The “solubility compared to the other polymorphs” value in series [2] (qualitative statement, solvent not stated) is listed as “superior to the other polymorphs”.

On to `CCCc1c(SCCCOc2ccc(C(C)=O)c(OCCCC(=O)O)c2CCC)ccc(C(C)=O)c1O` [undesired monoclinic polymorph, 4-[6-acetyl-3-[3-(4-acetyl-3-hydroxy-2-propylphenylthio)propoxy]-2-propylphenoxy]butyric acid], for which the “Solubility in ethanol/water (2:1)” value in series [3] (22° C.) stood at 3.4 mg/mL (≈ 6.41 mM); in series [3] (30° C.) it was 6.1 mg/mL (≈ 11.5 mM); in series [3] (40° C.), 17.2 mg/mL (≈ 32.4 mM).
